# Key:
# HCT116 xenograft tumors = test: Combination treatment in the HCT116 CDX model; assay type: in vivo, BALB/c nude mice; details: 15 mg/kg MDL-811 plus 50 μg/kg 1,25(OH)2D3 intraperitoneally every other day for 14 days, vs vehicle or single drug
# [1] = Body weights and behaviour of xenograft models; assay type: in vivo; details: CDX and PDX mice at the efficacy dosage
# Experimental: All animal studies were performed following federal and institutional guidelines approved by the Institutional Animal Care and Use Committee at Shanghai Jiao-Tong University School of Medicine. To establish the CDXs, HCT116 cells (1 × 10^6) suspended in 100 μL of 1× PBS were injected subcutaneously into the flanks of six-week-old male BALB/c nude mice. To establish the PDXs, primary tumors resected from two independent CRC patients (patient #1 and #2) were collected in the culture medium. The necrotic and supporting tissues were carefully removed using sterilized surgical blades. The gross tumor was cut into fragments (2-3 mm in diameter) and inoculated subcutaneously into the flanks of nude mice. The mice were monitored daily, and caliper measurements began when tumors became visible. The tumor volume was monitored every other day via calipers. The tumor volume was calculated using the following formula: (L × W ^2) / 2, where L and W refer to the tumor diameter along the longitudinal and transverse axes, respectively. When the mean tumor volume was approximately 100 to 250 mm^3, the mice were randomly grouped (n = 6 per group for CDXs, n = 8 per group for PDXs), and treatment was initiated. […] After treatment or if meeting the humane endpoint criteria, the mice were sacrificed by CO2 asphyxiation. The tumors were dissected, imaged, and weighed. […]
# SIRT6 [2] = target: T1, SIRT6 (Homo sapiens, UniProt Q8N6T7); test: Histone deacetylase enzyme selectivity assay; assay type: biochemical; design: endogenous in cells; host or cells: HEK293T; details: SIRT6, selectivity panel
# Experimental: Then, the reaction was initiated by adding the fluorogenic HDAC acetylated substrate (also adding NAD^+ in the deacetylase assays of sirtuins) at the indicated concentrations at room temperature or 37 °C for the indicated durations. After incubation, the reaction was stopped with an equal volume of buffer containing 1 mL of HDAC developer (peptidase activity, BPS Bioscience); 20 µM trichostatin was also included for the termination in the deacetylase assays of HDAC1-11. After the indicated time, fluorescence intensity was measured using a microplate reader (Envision, Perkin Elmer) at excitation and emission wavelengths of 355 nm and 460 nm, respectively. We also developed deacetylase assays for SIRT5 and SIRT7, which were not available at CEREP. For SIRT5 deacetylation assay, HEK293T cells were transiently transfected with empty vector or pcDNA3.1-SIRT5-HA (10 μg/10 cm plate) using Neofect™ DNA transfection reagent. 48 h after transfection, cells were lysed in ice-cold NP-40 buffer (50 mM Tris-HCl [pH 8.0], 150 mM NaCl, 1% NP-40, and protease inhibitor cocktail) with rotation at 4 °C for 30 min. A particle-free supernatant solution was obtained by centrifugation at 13,600 × g for 15 min at 4 °C. […] The data points at various concentrations were expressed as percent inhibition or activation effects of the control activity. […]
# [3] = system: adenomas in small intestines and colons of APC^min/+ mice; test: APC^min/+ model of spontaneous CRC; assay type: in vivo, C57BL/6J-APC^min/+ mice; details: 20 mg/kg intraperitoneal injection every two days for 12 weeks
# Experimental: C57BL/6J-APC^min/+ mice were obtained from Jackson Laboratory. […] The mice were sacrificed in the twentieth week. Tumor numbers were calculated, and tumors were imaged after longitudinal dissection of the small intestine and colon. Then, the small intestines and colons were sectioned and stained for immunohistochemistry.
# SW480 = test: Cell cycle analysis (PI staining, flow cytometry); assay type: cell-based, human; details: for cell cycle phase distribution, G2/M: 48 h (0 µM: 13.9 ± 1.8); for cell cycle phase distribution, S: 48 h (0 µM: 38.3 ± 3.6); for cell cycle phase distribution, G0/G1: 48 h (0 µM: 47.7 ± 1.3)
# Experimental: (§1) Then, cells were collected and fixed with 75% ethanol at 4 °C overnight. The cells were incubated with RNase I (50 μg/mL) in 1× PBS at 37 °C for 30 min and stained with propidium iodide (50 μg/mL) for 15 min. The cells were analyzed by flow cytometry and FACS DIVA software, v6.2 (BD Biosciences). The cell cycle distribution was analyzed using FlowJo 7.6.1 software. The data are presented as the mean ± s.d. of three independent experiments.
# HT29 = test: Cell cycle analysis (PI staining, flow cytometry); assay type: cell-based, human; details: for cell cycle phase distribution, G2/M: 48 h (0 µM: 22.6 ± 6.7); for cell cycle phase distribution, S: 48 h (0 µM: 36.9 ± 4.6); for cell cycle phase distribution, G0/G1: 48 h (0 µM: 40.5 ± 2.6)
# Experimental: as §1
# SIRT6 [4] = target: T1, SIRT6; test: SIRT6 deacetylation on nucleosome substrates (western blot); assay type: biochemical; design: WT (wild-type) full-length human SIRT6 was inserted into the pET28a-LIC vector; made in house; host or cells: Escherichia coli BL21 (DE3); details: natural nucleosomes, dose-dependent
# Experimental: In vitro deacetylation reactions on nucleosome substrates were performed as previously reported, [32]. Briefly, 5 μg of mononucleosomes purified from HeLa cells with a nucleosome preparation kit (Active Motif) and 0.2 μg of purified WT SIRT6 were incubated in 40 μL of HDAC buffer (50 mM Tris-HCl [pH 8.0], 2 mM NAD^+, and 150 mM NaCl) for 80 min at 30 °C. […] The reaction mixture was analyzed by western blotting.
# T1 sequence (Q8N6T7 whole entry): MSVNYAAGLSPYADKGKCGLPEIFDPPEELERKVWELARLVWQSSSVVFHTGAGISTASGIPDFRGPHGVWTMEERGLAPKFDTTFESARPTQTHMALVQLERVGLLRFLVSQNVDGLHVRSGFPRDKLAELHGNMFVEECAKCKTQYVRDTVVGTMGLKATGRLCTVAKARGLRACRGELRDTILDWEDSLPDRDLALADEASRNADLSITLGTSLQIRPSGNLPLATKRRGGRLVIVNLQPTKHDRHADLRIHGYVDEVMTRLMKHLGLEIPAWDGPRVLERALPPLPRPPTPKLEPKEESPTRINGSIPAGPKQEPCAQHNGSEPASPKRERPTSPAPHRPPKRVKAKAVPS
structure (smiles),measurement,setting,value
Cc1cc(F)c(Br)cc1NS(=O)(=O)c1ccc(NS(=O)(=O)c2cc(Cl)cc(Cl)c2)cc1CN1CCOC[C@H]1C [MDL-811],"tumor growth, cotreatment",HCT116 xenograft tumors,dramatically enhanced tumor growth regression
same,weight loss and behavioral signs,[1],did not observe any significant weight loss or other abnormal behavioral signs
same,Effect,SIRT6 [2],Activation
same,number and size of adenomas,[3],significantly reduced the number and size of adenomas
same,"cell cycle phase distribution, G2/M","SW480; SW480, 5 µM",10.8 ± 4.4
same,"cell cycle phase distribution, S","SW480; SW480, 5 µM",26.3 ± 5.1
same,"cell cycle phase distribution, G0/G1","SW480; SW480, 5 µM",62.9 ± 6.0
same,"cell cycle phase distribution, G2/M","SW480; SW480, 10 µM",11.9 ± 6.4
same,"cell cycle phase distribution, S","SW480; SW480, 10 µM",18.1 ± 4.9
same,"cell cycle phase distribution, G0/G1","SW480; SW480, 10 µM",70.0 ± 3.8
same,"cell cycle phase distribution, G2/M","HT29; HT29, 5 µM",20.2 ± 4.2
same,"cell cycle phase distribution, S","HT29; HT29, 5 µM",25.3 ± 4.5
same,"cell cycle phase distribution, G0/G1","HT29; HT29, 5 µM",54.5 ± 4.1
same,"cell cycle phase distribution, G2/M","HT29; HT29, 10 µM",20.5 ± 3.7
same,"cell cycle phase distribution, S","HT29; HT29, 10 µM",19.6 ± 2.3
same,"cell cycle phase distribution, G0/G1","HT29; HT29, 10 µM",59.9 ± 2.7
same,"deacetylation of H3K9Ac, H3K18Ac, and H3K56Ac",SIRT6 [4],"significantly enhanced the deacetylation of SIRT6 (H3K9Ac, H3K18Ac, and H3K56Ac)"
